Data published in ChEMBL document CHEMBL3044670, “Aromatic sulfonyl hydrazides and sulfonyl hydrazones: antimicrobial activity and physical properties” (2013).
In brackets after ≈: the same amount, converted by molar mass.

Key:
Escherichia coli [1] = experiment: Antibacterial activity against Escherichia coli ATCC 25922 at 140 ug/disk after 18 to 24 hr by disk diffusion method; format: functional; settings: read-out: DIZ
Klebsiella pneumoniae [2] = experiment: Antibacterial activity against Klebsiella pneumoniae ATCC 13883 at 140 ug/disk after 18 to 24 hr by disk diffusion method; format: functional; settings: read-out: DIZ
Pseudomonas fluorescens [3] = experiment: Antibacterial activity against Pseudomonas fluorescens ATCC 49838 at 140 ug/disk after 18 to 24 hr by disk diffusion method; format: functional; settings: read-out: DIZ
Klebsiella aerogenes [4] = experiment: Antibacterial activity against Enterobacter aerogenes ATCC 13048 at 140 ug/disk after 18 to 24 hr by disk diffusion method; format: functional; settings: read-out: DIZ
[5] = tested on: Staphylococcus epidermidis; experiment: Antibacterial activity against Staphylococcus epidermidis ATCC 12228 at 140 ug/disk after 18 to 24 hr by disk diffusion method; format: functional; settings: read-out: DIZ
Bacillus subtilis [6] = experiment: Antibacterial activity against Bacillus subtilis ATCC 6633 at 140 ug/disk after 18 to 24 hr by disk diffusion method; format: functional; settings: read-out: DIZ
Enterococcus faecalis [7] = experiment: Antibacterial activity against Enterococcus faecalis ATCC 29212 at 140 ug/disk after 18 to 24 hr by disk diffusion method; format: functional; settings: read-out: DIZ
Bacillus cereus [8] = experiment: Antibacterial activity against Bacillus cereus ATCC 11778 at 140 ug/disk after 18 to 24 hr by disk diffusion method; format: functional; settings: read-out: DIZ
Staphylococcus aureus [9] = experiment: Antibacterial activity against Staphylococcus aureus ATCC 25923 at 140 ug/disc after 18 to 24 hr by disk diffusion method; format: functional; settings: read-out: DIZ
Candida albicans [10] = experiment: Antifungal activity against Candida albicans ATCC 90028 after 18 to 24 hr by broth microdilution method; format: functional
Pseudomonas aeruginosa [11] = experiment: Antibacterial activity against Pseudomonas aeruginosa ATCC 27853 after 18 to 24 hr by broth microdilution method; format: functional
Escherichia coli [12] = experiment: Antibacterial activity against Escherichia coli ATCC 25922 after 18 to 24 hr by broth microdilution method; format: functional
Klebsiella pneumoniae [13] = experiment: Antibacterial activity against Klebsiella pneumoniae ATCC 13883 after 18 to 24 hr by broth microdilution method; format: functional
Pseudomonas fluorescens [14] = experiment: Antibacterial activity against Pseudomonas fluorescens ATCC 49838 after 18 to 24 hr by broth microdilution method; format: functional
Klebsiella aerogenes [15] = experiment: Antibacterial activity against Enterobacter aerogenes ATCC 13048 after 18 to 24 hr by broth microdilution method; format: functional
[16] = tested on: Staphylococcus epidermidis; experiment: Antibacterial activity against Staphylococcus epidermidis ATCC 12228 after 18 to 24 hr by broth microdilution method; format: functional
Enterococcus faecalis [17] = experiment: Antibacterial activity against Enterococcus faecalis ATCC 29212 after 18 to 24 hr by broth microdilution method; format: functional
Bacillus cereus [18] = experiment: Antibacterial activity against Bacillus cereus ATCC 11778 after 18 to 24 hr by broth microdilution method; format: functional
Staphylococcus aureus [19] = experiment: Antibacterial activity against Staphylococcus aureus ATCC 25923 after 18 to 24 hr by broth microdilution method; format: functional
Candida albicans [20] = experiment: Antifungal activity against Candida albicans ATCC 90028 at 140 ug/disk after 18 to 24 hr by disk diffusion method; format: functional; settings: read-out: DIZ
Pseudomonas aeruginosa [21] = experiment: Antibacterial activity against Pseudomonas aeruginosa ATCC 27853 at 140 ug/disk after 18 to 24 hr by disk diffusion method; format: functional; settings: read-out: DIZ
Bacillus subtilis [22] = experiment: Antibacterial activity against Bacillus subtilis ATCC 6633 after 18 to 24 hr by broth microdilution method; format: functional
Bacillus subtilis [23] = experiment: Antibacterial activity against Bacillus subtilis ATCC 6633 at 30 ug/disk after 18 to 24 hr by disk diffusion method; format: functional
Bacillus cereus [24] = experiment: Antibacterial activity against Bacillus cereus ATCC 11778 at 30 ug/disk after 18 to 24 hr by disk diffusion method; format: functional
Enterococcus faecalis [25] = experiment: Antibacterial activity against Enterococcus faecalis ATCC 29212 at 30 ug/disk after 18 to 24 hr by disk diffusion method; format: functional
Staphylococcus aureus [26] = experiment: Antibacterial activity against Staphylococcus aureus ATCC 25923 at 30 ug/disk after 18 to 24 hr by disk diffusion method; format: functional
Candida albicans [27] = experiment: Antifungal activity against Candida albicans ATCC 90028 at 30 ug/disk after 18 to 24 hr by disk diffusion method; format: functional
Pseudomonas aeruginosa [28] = experiment: Antibacterial activity against Pseudomonas aeruginosa ATCC 27853 at 30 ug/disk after 18 to 24 hr by disk diffusion method; format: functional
Escherichia coli [29] = experiment: Antibacterial activity against Escherichia coli ATCC 25922 at 30 ug/disk after 18 to 24 hr by disk diffusion method; format: functional
Klebsiella pneumoniae [30] = experiment: Antibacterial activity against Klebsiella pneumoniae ATCC 13883 at 30 ug/disk after 18 to 24 hr by disk diffusion method; format: functional
Klebsiella aerogenes [31] = experiment: Antibacterial activity against Enterobacter aerogenes ATCC 13048 at 30 ug/disk after 18 to 24 hr by disk diffusion method; format: functional
Pseudomonas fluorescens [32] = experiment: Antibacterial activity against Pseudomonas fluorescens ATCC 49838 at 30 ug/disk after 18 to 24 hr by disk diffusion method; format: functional
[33] = tested on: Staphylococcus epidermidis; experiment: Antibacterial activity against Staphylococcus epidermidis ATCC 12228 at 30 ug/disk after 18 to 24 hr by disk diffusion method; format: functional
Pseudomonas aeruginosa [34] = experiment: Antibacterial activity against Pseudomonas aeruginosa ATCC 27853 at 40 ug/disk after 18 to 24 hr by disk diffusion method; format: functional; settings: read-out: DIZ
Escherichia coli [35] = experiment: Antibacterial activity against Escherichia coli ATCC 25922 at 40 ug/disk after 18 to 24 hr by disk diffusion method; format: functional; settings: read-out: DIZ
Pseudomonas fluorescens [36] = experiment: Antibacterial activity against Pseudomonas fluorescens ATCC 49838 at 40 ug/disk after 18 to 24 hr by disk diffusion method; format: functional; settings: read-out: DIZ
Klebsiella pneumoniae [37] = experiment: Antibacterial activity against Klebsiella pneumoniae ATCC 13883 at 40 ug/disk after 18 to 24 hr by disk diffusion method; format: functional; settings: read-out: DIZ
Staphylococcus aureus [38] = experiment: Antibacterial activity against Staphylococcus aureus ATCC 25923 at 40 ug/disc after 18 to 24 hr by disk diffusion method; format: functional; settings: read-out: DIZ
Bacillus cereus [39] = experiment: Antibacterial activity against Bacillus cereus ATCC 11778 at 40 ug/disk after 18 to 24 hr by disk diffusion method; format: functional; settings: read-out: DIZ
Enterococcus faecalis [40] = experiment: Antibacterial activity against Enterococcus faecalis ATCC 29212 at 40 ug/disk after 18 to 24 hr by disk diffusion method; format: functional; settings: read-out: DIZ
Bacillus subtilis [41] = experiment: Antibacterial activity against Bacillus subtilis ATCC 6633 at 40 ug/disk after 18 to 24 hr by disk diffusion method; format: functional; settings: read-out: DIZ
[42] = tested on: Staphylococcus epidermidis; experiment: Antibacterial activity against Staphylococcus epidermidis ATCC 12228 at 40 ug/disk after 18 to 24 hr by disk diffusion method; format: functional; settings: read-out: DIZ
Klebsiella aerogenes [43] = experiment: Antibacterial activity against Enterobacter aerogenes ATCC 13048 at 40 ug/disk after 18 to 24 hr by disk diffusion method; format: functional; settings: read-out: DIZ
Candida albicans [44] = experiment: microbe, parasite or virus in culture; settings: ATCC 90028, read-out: DIZ
Description: Antifungal activity against Candida albicans ATCC 90028 at 40 ug/disk after 18 to 24 hr by disk diffusion method

Molecule | zone of inhibition at 140 µg/disc (Escherichia coli [1]) [mm] | zone of inhibition at 140 µg/disc (Klebsiella pneumoniae [2]) [mm] | zone of inhibition at 140 µg/disc (Pseudomonas fluorescens [3]) [mm] | zone of inhibition at 140 µg/disc (Klebsiella aerogenes [4]) [mm] | zone of inhibition at 140 µg/disc [5] [mm] | zone of inhibition at 140 µg/disc (Bacillus subtilis [6]) [mm] | zone of inhibition at 140 µg/disc (Enterococcus faecalis [7]) [mm] | zone of inhibition at 140 µg/disc (Bacillus cereus [8]) [mm] | zone of inhibition at 140 µg/disc (Staphylococcus aureus [9]) [mm] | MIC (Candida albicans [10]) [µg/mL] | MIC (Pseudomonas aeruginosa [11]) [µg/mL] | MIC (Escherichia coli [12]) [µg/mL] | MIC (Klebsiella pneumoniae [13]) [µg/mL] | MIC (Pseudomonas fluorescens [14]) [µg/mL] | MIC (Klebsiella aerogenes [15]) [µg/mL] | MIC [16] [µg/mL] | MIC (Enterococcus faecalis [17]) [µg/mL] | MIC (Bacillus cereus [18]) [µg/mL] | MIC (Staphylococcus aureus [19]) [µg/mL] | zone of inhibition at 140 µg/disc (Candida albicans [20]) [mm] | further results
O=S(=O)(NCCO)c1ccccc1 | 0 | 0 | 0 | 0 | 0 | 0 | 0 | 0 | 0 | 1000 (≈ 4970 µM) | 1000 (≈ 4970 µM) | 1000 (≈ 4970 µM) | 1000 (≈ 4970 µM) | 1000 (≈ 4970 µM) | 1000 (≈ 4970 µM) | > 2000 | > 2000 | > 2000 | > 2000 | 0 | zone of inhibition at 140 µg/disc (Pseudomonas aeruginosa [21]): 0 mm; MIC (Bacillus subtilis [22]): 1000 µg/mL (≈ 4970 µM)
CN(N)S(=O)(=O)c1ccccc1 | 18 | 17 | 22 | 16 | 14 | 16 | 15 | 15 | 19 | > 2000 | 62.5 (≈ 336 µM) | 125 (≈ 671 µM) | 125 (≈ 671 µM) | 62.5 (≈ 336 µM) | 125 (≈ 671 µM) | 125 (≈ 671 µM) | 250 (≈ 1340 µM) | 125 (≈ 671 µM) | 125 (≈ 671 µM) | 0 | zone of inhibition at 140 µg/disc (Pseudomonas aeruginosa [21]): 19 mm; MIC (Bacillus subtilis [22]): 125 µg/mL (≈ 671 µM)
NYSTATIN | – | – | – | – | – | – | – | – | – | 0.125 | – | – | – | – | – | – | – | – | – | – | inhibition zone (IZ) (Bacillus subtilis [23]): 0 mm; inhibition zone (IZ) (Bacillus cereus [24]): 0 mm; inhibition zone (IZ) (Enterococcus faecalis [25]): 0 mm; inhibition zone (IZ) (Staphylococcus aureus [26]): 0 mm; inhibition zone (IZ) (Candida albicans [27]): 18 mm; inhibition zone (IZ) (Pseudomonas aeruginosa [28]): 0 mm; inhibition zone (IZ) (Escherichia coli [29]): 0 mm; inhibition zone (IZ) (Klebsiella pneumoniae [30]): 0 mm; inhibition zone (IZ) (Klebsiella aerogenes [31]): 0 mm; inhibition zone (IZ) (Pseudomonas fluorescens [32]): 0 mm; inhibition zone (IZ) [33]: 0 mm
Clc1ccc(COC(Cn2ccnc2)c2ccc(Cl)cc2Cl)c(Cl)c1 (stereo not given) [MICONAZOLE] | – | – | – | – | – | – | – | – | – | 0.15 (≈ 0.36 µM) | – | – | – | – | – | – | – | – | – | – | zone of inhibition at 40 µg/disc (Pseudomonas aeruginosa [34]): 0 mm; zone of inhibition at 40 µg/disc (Escherichia coli [35]): 0 mm; zone of inhibition at 40 µg/disc (Pseudomonas fluorescens [36]): 0 mm; zone of inhibition at 40 µg/disc (Klebsiella pneumoniae [37]): 0 mm; zone of inhibition at 40 µg/disc (Staphylococcus aureus [38]): 0 mm; zone of inhibition at 40 µg/disc (Bacillus cereus [39]): 0 mm; zone of inhibition at 40 µg/disc (Enterococcus faecalis [40]): 0 mm; zone of inhibition at 40 µg/disc (Bacillus subtilis [41]): 0 mm; zone of inhibition at 40 µg/disc [42]: 0 mm; zone of inhibition at 40 µg/disc (Klebsiella aerogenes [43]): 0 mm; zone of inhibition at 40 µg/disc (Candida albicans [44]): 26 mm
CN(/N=C/c1c(O)ccc2ccccc12)S(=O)(=O)c1ccccc1 | 17 | 23 | 26 | 18 | 16 | 28 | 17 | 26 | 19 | 500 (≈ 1470 µM) | 250 (≈ 734 µM) | 500 (≈ 1470 µM) | 250 (≈ 734 µM) | 250 (≈ 734 µM) | 500 (≈ 1470 µM) | 500 (≈ 1470 µM) | 500 (≈ 1470 µM) | 250 (≈ 734 µM) | 500 (≈ 1470 µM) | 16 | zone of inhibition at 140 µg/disc (Pseudomonas aeruginosa [21]): 25 mm; MIC (Bacillus subtilis [22]): 250 µg/mL (≈ 734 µM)
